Measured values published in paper PMC7253177, “Gain of channel function and modified gating properties in TRPM3 mutants causing intellectual disability and epilepsy” (eLife, 2020).

Molecular target: T1, WT human TRPM3 (Homo sapiens, UniProt Q9HCF6)
T1 construct: expressed in transfected cells; host or cells: HEK293T
T1 sequence (Q9HCF6 1-1325 isoform Q9HCF6-10): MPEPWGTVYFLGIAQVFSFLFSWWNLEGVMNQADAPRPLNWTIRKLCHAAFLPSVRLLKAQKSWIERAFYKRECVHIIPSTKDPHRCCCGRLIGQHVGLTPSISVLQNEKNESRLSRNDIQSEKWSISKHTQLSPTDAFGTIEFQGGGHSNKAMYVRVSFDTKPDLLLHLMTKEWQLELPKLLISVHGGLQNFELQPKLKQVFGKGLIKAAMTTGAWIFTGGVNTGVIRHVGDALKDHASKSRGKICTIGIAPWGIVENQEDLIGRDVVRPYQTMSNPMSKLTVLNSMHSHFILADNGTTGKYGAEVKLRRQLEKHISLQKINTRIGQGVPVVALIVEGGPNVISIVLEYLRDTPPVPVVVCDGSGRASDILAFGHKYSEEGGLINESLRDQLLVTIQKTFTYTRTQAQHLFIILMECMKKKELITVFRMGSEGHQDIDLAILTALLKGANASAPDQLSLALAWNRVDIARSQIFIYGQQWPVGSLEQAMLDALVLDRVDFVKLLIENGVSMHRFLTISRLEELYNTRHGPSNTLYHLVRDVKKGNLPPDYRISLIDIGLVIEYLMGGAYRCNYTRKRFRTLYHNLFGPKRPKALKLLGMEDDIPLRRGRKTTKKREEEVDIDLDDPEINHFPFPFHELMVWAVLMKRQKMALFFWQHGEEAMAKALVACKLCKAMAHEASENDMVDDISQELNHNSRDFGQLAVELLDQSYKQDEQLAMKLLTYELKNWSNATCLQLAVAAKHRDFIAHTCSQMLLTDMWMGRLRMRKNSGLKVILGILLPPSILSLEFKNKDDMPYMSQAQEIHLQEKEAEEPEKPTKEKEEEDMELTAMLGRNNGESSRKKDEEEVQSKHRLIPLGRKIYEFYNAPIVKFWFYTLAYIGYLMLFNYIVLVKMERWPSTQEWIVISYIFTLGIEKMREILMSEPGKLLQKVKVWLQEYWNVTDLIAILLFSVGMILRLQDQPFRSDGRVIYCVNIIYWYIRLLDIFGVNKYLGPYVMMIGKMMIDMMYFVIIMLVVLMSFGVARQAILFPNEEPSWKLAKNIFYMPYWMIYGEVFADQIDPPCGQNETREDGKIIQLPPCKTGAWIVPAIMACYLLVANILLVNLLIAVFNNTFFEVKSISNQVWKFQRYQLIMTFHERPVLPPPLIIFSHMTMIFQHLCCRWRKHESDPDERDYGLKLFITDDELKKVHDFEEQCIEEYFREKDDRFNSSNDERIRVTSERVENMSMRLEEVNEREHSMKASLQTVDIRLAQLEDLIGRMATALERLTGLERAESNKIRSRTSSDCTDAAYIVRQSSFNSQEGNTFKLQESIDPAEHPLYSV
Test: Whole-cell patch clamp, HEK293T cells expressing WT hTRPM3
Assay type: cell-based
Details: WT
Procedure: HEK293T cells ([Graham et al., 1977]) were cultured as described previously ([Vriens et al., 2007]) and used up in passage number 14. HEK293T cells were tested for the lack of mycoplasma and transiently transfected with 2 µg of DNA using TransIT transfection reagent (Mirus) 36–48 hr before the measurements. In case of co-cultures a ratio of 1:1 between hTRPM3-YFP WT and mutants-YFP DNA was used.
Standard whole-cell patch-clamp recordings were performed with an EPC-10 amplifier and the PatchMasterPro Software (HEKA Elektronik, Lambrecht, Germany). Current measurements were performed at a sampling rate of 20 kHz and currents were digitally filtered at 2.9 kHz. In all measurements, 70% of the series resistance was compensated. The standard internal solution contained (in mM): 100 CsAsp, 45 CsCl, 10 EGTA, 10 HEPES, 1 MgCl2 (pH 7.2 with CsOH) or 140 potassium gluconate, 5 EGTA, 1 MgCl2, 10 HEPES and 2 NaATP (pH 7.3 with CsOH) for the measurements of Gβγ mediated inhibition and the standard extracellular solution contained (in mM): 150 NaCl, 1 MgCl2, 10 HEPES (pH 7.4 with NaOH). The standard patch pipette resistance was between 2 MΩ and 4 MΩ when filled with pipette solution. In experiments allowing Ca^2+-dependent desensitization of TRPM3, Mg^2+ was replaced by Ca^2+ in the extracellular solution, and Cs^+ was replaced by Na^+ in the pipette solution. […] The chemical ligands were dissolved in bath solution from a stock diluted in DMSO.

Clc1ccccc1C(c1ccccc1)(c1ccccc1)n1ccnc1 [Clt, clotrimazole]
Activation of whole-cell currents in the absence of PS (Clt 10 µM): did not activate currents by itself
Effect on the response to PS (whole-cell currents) (Clt 10 µM, PS 40 µM): potentiated responses to PS

CCC1(c2ccccc2)C(=O)NCNC1=O [primidone]
Inhibition of PS-activated inward and outward currents (primidone 25 µM, PS 40 µM, ±80 mV, cells co-expressing µ-opioid receptor): full inhibition

pregnenolone sulfate [PS]
Activation of whole-cell currents (PS 40 µM): reversibly activated outwardly rectifying whole-cell currents
